Here are results for seven compounds from ChEMBL document CHEMBL2321798, “Polyamino geranic derivatives as new chemosensitizers to combat antibiotic resistant gram-negative bacteria” (Bioorg Med Chem, 2013).

The subject of test [1] is Salmonella typhimurium. Nature of the test: Reduction of multidrug-resistant in Salmonella enterica Typhimurium BN10055 assessed as ratio of chloramphenicol MIC to chloramphenicol MIC in presence of compound at 75 uM by micro-broth dilution method. The class given is functional, Salmonella enterica subsp. enterica serovar Typhimurium. In general terms: Broth dilution looks for growth in wells or tubes with falling amounts of substance.

The subject of test [2] is Salmonella typhimurium. Description: Reduction of multidrug-resistant in Salmonella enterica Typhimurium BN10055 harboring deltaacrB assessed as ratio of chloramphenicol MIC to chloramphenicol MIC in presence of compound by micro-broth dilution method. The class given is functional, organism-based. To be noted: Salmonella enterica subsp. enterica serovar Typhimurium.
For test [3], the system named is Klebsiella aerogenes. Nature of the test: Antibacterial activity against Enterobacter aerogenes Ea289 after 18 hrs by broth dilution method. The note with it: Ea289, 18 h. Format: functional.
Test [4] has as its system Klebsiella aerogenes. Nature of the test: Reduction of multidrug-resistant in Enterobacter aerogenes Ea294 harboring Ea289deltaacrB assessed as ratio of nalidixic acid MIC to nalidixic acid MIC in presence of compound by micro-broth dilution method. The class given is functional, organism-based.
Test [5] relates to Klebsiella aerogenes. Description: Reduction of multidrug-resistant in Enterobacter aerogenes Ea289 assessed as ratio of chloramphenicol MIC to chloramphenicol MIC in presence of compound at 75 uM by micro-broth dilution method. The class given is functional.
In test [6] the test system is Klebsiella aerogenes. Description: Reduction of multidrug-resistant in Enterobacter aerogenes Ea289 assessed as ratio of nalidixic acid MIC to nalidixic acid MIC in presence of compound at 75 uM by micro-broth dilution method. Format: functional.
In test [7] the test system is Klebsiella aerogenes. Description: Antibacterial activity against Enterobacter aerogenes Ea294 harboring Ea289deltaacrB after 18 hrs by broth dilution method. The class given is functional. The note with it: Ea294, 18 h.
Test [8] relates to Salmonella typhimurium. Description: Reduction of multidrug-resistant in Salmonella enterica Typhimurium BN10055 harboring deltaacrB assessed as ratio of nalidixic acid MIC to nalidixic acid MIC in presence of compound by micro-broth dilution method. Format: functional, organism-based. The note with it: Salmonella enterica subsp. enterica serovar Typhimurium.
Test [9] relates to Klebsiella aerogenes. Nature of the test: Reduction of multidrug-resistant in Enterobacter aerogenes Ea294 harboring Ea289deltaacrB assessed as ratio of chloramphenicol MIC to chloramphenicol MIC in presence of compound by micro-broth dilution method. Format: functional, organism-based.
Test [10] concerns Salmonella typhimurium. Description: Reduction of multidrug-resistant in Salmonella enterica Typhimurium BN10055 assessed as ratio of nalidixic acid MIC to nalidixic acid MIC in presence of compound at 75 uM by micro-broth dilution method. Format: functional, Salmonella enterica subsp. enterica serovar Typhimurium.
The next test deals with CHO. Nature of the test: Cytotoxicity against CHO cells. The note with it: Cricetulus griseus. Format: cell-based.
Test [11] concerns Salmonella typhimurium. Description: Antibacterial activity against Salmonella enterica Typhimurium BN10055 after 18 hrs by broth dilution method. Format: functional, Salmonella enterica subsp. enterica serovar Typhimurium. To be noted: BN10055, 18 h.
In test [12] the target is T1, AcrB protein (Klebsiella aerogenes) (UniProt Q9AEG1).
T1 sequence (whole entry): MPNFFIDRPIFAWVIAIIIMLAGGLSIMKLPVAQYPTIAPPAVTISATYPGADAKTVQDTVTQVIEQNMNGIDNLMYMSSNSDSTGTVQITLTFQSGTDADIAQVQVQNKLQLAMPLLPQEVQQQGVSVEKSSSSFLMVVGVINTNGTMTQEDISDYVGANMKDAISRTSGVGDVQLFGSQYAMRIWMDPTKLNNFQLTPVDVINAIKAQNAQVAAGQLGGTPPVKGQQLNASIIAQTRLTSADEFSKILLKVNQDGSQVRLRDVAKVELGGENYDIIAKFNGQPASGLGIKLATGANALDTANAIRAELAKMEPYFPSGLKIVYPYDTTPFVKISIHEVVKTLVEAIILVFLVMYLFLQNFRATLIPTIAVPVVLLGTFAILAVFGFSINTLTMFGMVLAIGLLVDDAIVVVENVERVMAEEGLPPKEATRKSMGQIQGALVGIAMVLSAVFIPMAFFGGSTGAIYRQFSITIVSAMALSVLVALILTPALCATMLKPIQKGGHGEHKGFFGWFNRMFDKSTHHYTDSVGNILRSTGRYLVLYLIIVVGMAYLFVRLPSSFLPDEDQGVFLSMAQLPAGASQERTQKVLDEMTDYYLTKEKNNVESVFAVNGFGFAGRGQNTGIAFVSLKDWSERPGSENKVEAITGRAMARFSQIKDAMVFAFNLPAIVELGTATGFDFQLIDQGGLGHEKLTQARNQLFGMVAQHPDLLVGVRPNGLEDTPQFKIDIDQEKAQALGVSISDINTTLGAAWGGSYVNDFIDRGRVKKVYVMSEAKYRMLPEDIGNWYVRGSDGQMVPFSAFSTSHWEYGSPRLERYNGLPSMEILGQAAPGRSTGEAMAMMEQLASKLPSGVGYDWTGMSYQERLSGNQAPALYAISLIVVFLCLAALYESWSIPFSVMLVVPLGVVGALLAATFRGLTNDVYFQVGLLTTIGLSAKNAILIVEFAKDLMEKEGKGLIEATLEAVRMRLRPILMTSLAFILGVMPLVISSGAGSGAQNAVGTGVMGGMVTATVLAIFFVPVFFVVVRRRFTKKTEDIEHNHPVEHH
Nature of the test: Inhibition of AcrB in Enterobacter aerogenes Ea289 assessed as glucose-induced 1,2' dinaphthylamine efflux after 18 hrs.

The subject of test [13] is Salmonella typhimurium. Nature of the test: Antibacterial activity against Salmonella enterica Typhimurium BN10055 harboring deltaacrB after 18 hrs by broth dilution method. The class given is functional, Salmonella enterica subsp. enterica serovar Typhimurium. The note with it: BN10055, 18 h.
In test [14] the test system is Salmonella typhimurium. Description: Reduction of multidrug-resistant in Salmonella enterica Typhimurium BN10055 assessed as ratio of chloramphenicol MIC to chloramphenicol MIC in presence of compound at 38 uM by micro-broth dilution method. The class given is functional, Salmonella enterica subsp. enterica serovar Typhimurium.
Test [15] concerns Klebsiella aerogenes. Description: Reduction of multidrug-resistant in Enterobacter aerogenes Ea289 assessed as ratio of nalidixic acid MIC to nalidixic acid MIC in presence of compound at 38 uM by micro-broth dilution method. The class given is functional.
In test [16] the test system is Salmonella typhimurium. Nature of the test: Reduction of multidrug-resistant in Salmonella enterica Typhimurium BN10055 assessed as ratio of nalidixic acid MIC to nalidixic acid MIC in presence of compound at 38 uM by micro-broth dilution method. The class given is functional, Salmonella enterica subsp. enterica serovar Typhimurium.
For test [17], the system named is Klebsiella aerogenes. Description: Reduction of multidrug-resistant in Enterobacter aerogenes Ea289 assessed as ratio of chloramphenicol MIC to chloramphenicol MIC in presence of compound at 38 uM by micro-broth dilution method. Format: functional.

≈ marks a conversion by molar mass, not a printed value. Calls of active or inactive are those of the source. Residues, ends and D or L forms follow the SMILES beside them. *: point of attachment. βNA = c1ccc2cc(N*)ccc2c1

The term MIC denotes the smallest concentration in the dilution series that meets the test's criterion for growth inhibition. A higher MIC goes with a need for much substance. The IC50 is the concentration at which inhibition is half-maximal. Low values mean greater potency, high ones weaker potency.

With `CC(C)=CCC/C(C)=C/C(=O)NCCCN1CCOCC1`, the Ratio in the test with Salmonella typhimurium [1], in the test on Klebsiella aerogenes [5], in the test on Klebsiella aerogenes [6] and with Salmonella typhimurium [10] was 1 each time. Besides, the result in the test on Salmonella typhimurium [2], with Klebsiella aerogenes [4], in the test with Salmonella typhimurium [8] and with Klebsiella aerogenes [9] was inactive. Besides, the MIC with Klebsiella aerogenes [3], in the test with Klebsiella aerogenes [7] and in the test with Salmonella typhimurium [11] was greater than 250 µM each time. The IC50 in the test on CHO was greater than 150 µM.
`CC(C)=CCC/C(C)=C/C(=O)NCCCNCCCCNCCCN`: in [12], the inhibition result is “Dose-dependent effect”.
Turning to `O=C(N[C@H](CO)[C@H](O)c1ccc([N+](=O)[O-])cc1)C(Cl)Cl` [CHLORAMPHENICOL], the MIC worked out at 3200 µM (≈ 1030 µg/mL) in the test with Klebsiella aerogenes [3], 200 µM (≈ 64.6 µg/mL) against Salmonella typhimurium [13], 200 µM (≈ 64.6 µg/mL) with Klebsiella aerogenes [7] and 3200 µM (≈ 1030 µg/mL) against Salmonella typhimurium [11].
In the case of `C[C@H]1c2cccc(O)c2C(=O)C2=C(O)[C@]3(O)C(=O)C(C(N)=O)=C(O)[C@@H](N(C)C)[C@@H]3[C@@H](O)[C@@H]21` [DOXYCYCLINE], the MIC with Klebsiella aerogenes [3] was 72 µM (≈ 32 µg/mL); in the test on Salmonella typhimurium [13], 4.5 µM (≈ 2 µg/mL); in the test with Klebsiella aerogenes [7], 2.25 µM (≈ 1 µg/mL); against Salmonella typhimurium [11], 144 µM (≈ 64 µg/mL).
Take `CC[C@H]1OC(=O)[C@H](C)[C@@H](O[C@H]2C[C@@](C)(OC)[C@@H](O)[C@H](C)O2)[C@H](C)[C@@H](O[C@@H]2O[C@H](C)C[C@H](N(C)C)[C@H]2O)[C@](C)(O)C[C@@H](C)C(=O)[C@H](C)[C@@H](O)[C@]1(C)O` [ERYTHROMYCIN]: the MIC was determined as 350 µM (≈ 257 µg/mL) in the test on Klebsiella aerogenes [3], 55 µM (≈ 40.4 µg/mL) against Salmonella typhimurium [13], 110 µM (≈ 80.7 µg/mL) with Klebsiella aerogenes [7] and 350 µM (≈ 257 µg/mL) in the test on Salmonella typhimurium [11].
For the compound `CCn1cc(C(=O)O)c(=O)c2ccc(C)nc21` [NALIDIXIC ACID], the MIC against Klebsiella aerogenes [3] was determined as 17600 µM (≈ 4090 µg/mL); with Salmonella typhimurium [13], 275 µM (≈ 63.9 µg/mL); in the test with Klebsiella aerogenes [7], 4400 µM (≈ 1020 µg/mL); in the test with Salmonella typhimurium [11] it was 17600 µM (≈ 4090 µg/mL).
Regarding `N=C(N)NCCC[C@H](NC(=O)[C@@H](N)Cc1ccccc1)C(=O)Nc1ccc2ccccc2c1` [PABETAN] (H-Phe-Arg-βNA), the MIC came out at 2430 µM (≈ 1090 µg/mL) with Klebsiella aerogenes [3], 150 µM (≈ 67 µg/mL) in the test with Salmonella typhimurium [13], 150 µM (≈ 67 µg/mL) against Klebsiella aerogenes [7] and 1220 µM (≈ 543 µg/mL) against Salmonella typhimurium [11]. The Ratio in the test on Salmonella typhimurium [14] was found to be 8; in the test with Klebsiella aerogenes [15], 8; with Salmonella typhimurium [16], 64; in the test on Klebsiella aerogenes [17], 16.
